Source: patent US7642362B2, “Compounds as semaphorin inhibitors” (Dainippon Sumitomo Pharma Co., Ltd., priority 2002, dated 2010)

Experiments:
[1] = Solubility of the purified compounds in solvents; type: physicochemical
[2] = molecular target: T1, mouse semaphorin 3A (Sema3A) (Mus musculus, UniProt O08665); assay: Suppressing action on the growth cone collapse activity of Sema3A in chick dorsal root ganglion culture; type: cell-based; conditions: E7 chick embryo dorsal root ganglions; compound added 1 hour before 3 units/ml mouse Sema3A; growth cone collapse rate after another 1 hour
T1 sequence (O08665 21-772): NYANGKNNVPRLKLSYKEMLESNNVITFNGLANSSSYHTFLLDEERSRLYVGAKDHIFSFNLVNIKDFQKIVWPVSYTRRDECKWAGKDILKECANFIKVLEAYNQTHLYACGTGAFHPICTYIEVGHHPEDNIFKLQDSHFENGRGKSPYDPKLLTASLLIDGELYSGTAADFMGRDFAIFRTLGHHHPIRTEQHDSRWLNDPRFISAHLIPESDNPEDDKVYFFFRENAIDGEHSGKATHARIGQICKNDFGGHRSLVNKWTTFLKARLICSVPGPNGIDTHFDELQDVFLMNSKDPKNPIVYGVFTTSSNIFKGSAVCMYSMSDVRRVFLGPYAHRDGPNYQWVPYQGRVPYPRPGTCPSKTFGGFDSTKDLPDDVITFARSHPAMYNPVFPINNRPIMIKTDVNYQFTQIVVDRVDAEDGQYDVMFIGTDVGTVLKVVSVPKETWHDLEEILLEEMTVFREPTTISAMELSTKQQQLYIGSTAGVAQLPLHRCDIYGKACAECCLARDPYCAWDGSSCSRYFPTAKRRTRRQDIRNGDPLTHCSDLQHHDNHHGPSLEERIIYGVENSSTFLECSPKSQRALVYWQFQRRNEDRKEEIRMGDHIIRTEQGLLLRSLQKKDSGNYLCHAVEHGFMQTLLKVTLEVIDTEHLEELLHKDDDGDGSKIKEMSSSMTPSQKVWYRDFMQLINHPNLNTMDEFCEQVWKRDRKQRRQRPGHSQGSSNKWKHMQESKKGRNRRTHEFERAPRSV
Excerpt: The growth cone collapse activity of semaphorin described above means an activity to make growth cones disappear. This activity is observed after performing the following steps: cultivating nerve cells (generally tissue explants of ganglions) for a given period of time in vitro until the extended neurites as well as the growth cones at the edge of said neurites can be observed; and then adding thereto a given concentration (e.g. about 3 unit/ml; 1 unit/ml is defined as a semaphorin concentration in which 50% of the growth cones are collapsed) of semaphorin and cultivating for another given period of time (e.g. one hour). In order to get the extended neurites and the growth cones at the edge of said neurites ready for the observation, the nerve cells are generally cultivated for 10 to 20 hours in vitro, which duration can be altered according to a nerve variant and culture conditions. When the growth cone collapse caused by semaphorin is suppressed by, for example, the addition of a compound to this experimental system at an appropriate concentration about one hour prior to the addition of semaphorin, then such compound is regarded as a semaphorin inhibitor, especially as a compound with suppressing action on the growth cone collapse activity of semaphorin.
A 96-well plate (Sumitomo Bakelite Co., Ltd.) pre-coated with polylysine was further coated with laminine (20 μg/ml of laminine, for 1 hour at room temperature). Each well was added with 100 μl of medium (F12 medium containing 10% bovine fetal serum, 20 ng/ml of NGF, 100 units/ml of penicillin and 100 μg/ml of streptomycin) which medium was then inoculated with dorsal root nerve ganglions excised from E7 (Embryonic day 7) chick embryo and cultured for 16 to 20 hours under 5% CO2 at 37° C. Subsequently, the object compounds were added to media at various concentrations and 3 units/ml of mouse semaphorin 3A (Sema3A) was added after cultivating for 1 hour. The cultures were further incubated for another 1 hour. Glutaraldehyde was quickly added therein after said 1 hour to make the final concentration 1%. The cultures were then left for 15 minutes at room temperature so that the tissue sections were fixed, and collapse rates of the growth cones were microscopically determined. IC50 values was defined as a concentration of each compound at which concentration the collapse rate C equals to(A+B)/2, wherein (A) % is the collapse rate of growth cone of the negative control group (neither compounds nor Sema3A was added); (B) % is the collapse rate of growth cone of the positive control group (compounds were not added but Sema3A was added); and (C) % is the collapse rate of growth cone of the test group (each one compound and Sema3A were added).

[3] = tested on: nerve regeneration; assay: Nerve regeneration in vivo (earlier finding of the inventors)
[4] = tested on: semaphorin; assay: Semaphorin inhibitory activity (earlier finding of the inventors)

SMILES	Solubility in DMSO [1]	Solubility in hexane [1]	Solubility in methanol [1]	Solubility in water [1]	IC50 [2]	Promotion of nerve regeneration [3]	Semaphorin inhibitory activity [4]
CC(=O)c1c(C)c(C(=O)C2COc3cc(O)c(O)c(C(=O)O)c3C2=O)cc2c(=O)c3c(C(=O)O)c(O)c(O)cc3oc12 (centres unmarked) [SPF-3059-1]	–	–	–	–	–	promote nerve regeneration in vivo	have semaphorin inhibitory activity
Cc1cc(=O)c2c(o1)-c1c(c3c(c(O)c1C(=O)O)OC1(C)Cc4oc5cc(O)c(O)c(C(=O)O)c5c(=O)c4C3O1)OC2 (centres unmarked) [SPF-3059-8]	soluble	Insoluble	soluble	Insoluble	3460 nM	–	–
CC12Cc3oc4cc(O)c(O)c(C(=O)O)c4c(=O)c3C(O1)C1C(=O)C3=C(OC1(C)O2)c1c(cc(O)c(O)c1C(=O)O)OC3 (centres unmarked) [SPF-3059-19]	soluble	Insoluble	soluble	Insoluble	838 nM	–	–
CC(=O)c1cc(-c2c(C(C)=O)cc3c(=O)c4c(C(=O)O)c(O)c(O)cc4oc3c2C(C)=O)cc(C(=O)c2c(O)cc(O)c(O)c2C(=O)O)c1O [SPF-3059-23]	soluble	Insoluble	soluble	Insoluble	728 nM	–	–
CC(=O)C1=C2c3cc(O)c(O)cc3OCC2(C(=O)/C=C(/C)O)Cc2c1oc1cc(O)c(O)c(C(=O)O)c1c2=O (centres unmarked) [SPF-3059-40]	soluble	Insoluble	soluble	Insoluble	233 nM	–	–

Second part, led by results:

Solubility in DMSO [1]	Solubility in hexane [1]	Solubility in methanol [1]	Solubility in water [1]	IC50 [2]	SMILES	Promotion of nerve regeneration [3]	Semaphorin inhibitory activity [4]
soluble	Insoluble	soluble	Insoluble	861 nM	CC(=O)[C@]12c3c(cc(O)c(O)c3C(=O)O)OC[C@]13Cc1c(oc4cc(O)c(O)c(C(=O)O)c4c1=O)[C@H]2C(C)=C(O)C3=O (relative stereo) [SPF-3059-16]	–	–
soluble	Insoluble	soluble	Insoluble	225 nM	CC1=Cc2oc3cc(O)c(O)c(C(=O)O)c3c(=O)c2C(c2c(C)oc3c(c2=O)COc2cc(O)c(O)c(C(=O)O)c2-3)O1 (centres unmarked) [SPF-3059-17]	–	–
soluble	Insoluble	soluble	Insoluble	912 nM	CC(=O)c1c(C)c(C(=O)c2coc3cc(O)c(O)c(C(=O)O)c3c2=O)cc2c(=O)c3c(O)cc(O)c(O)c3oc12 [SPF-3059-22]	–	–
soluble	Insoluble	soluble	Insoluble	19.9 nM	CC(=O)c1c2c(c3ccc4c(=O)c5c(C(=O)O)c(O)c(O)cc5oc4c3c1C)C(=O)C1(CC2)COc2cc(O)c(O)c(C(=O)O)c2C1=O (centres unmarked) [SPF-3059-38]	–	–
soluble	Insoluble	soluble	Insoluble	78.1 nM	CC(=O)c1c(C)c(-c2oc3cc(O)c(O)c(C(=O)O)c3c(=O)c2Cc2c(C)oc3c(c2=O)COc2cc(O)c(O)c(C(=O)O)c2-3)cc2c(=O)c3cc(O)c(O)cc3oc12 [SPF-3059-42]	–	–
